Assay results reported in PubChem BioAssay (NCI).
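How tested: cells in 96-well plates exposed to compound for 48 hours at five concentrations. TGI: total growth inhibition.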

Assays:
Assay in all cases: inhibition of tumour cell growth, NCI panel, 48 h
[1] = test system: MDA-MB-435
[2] = test system: HS 578T breast
[3] = test system: SW-620 colon
[4] = test system: BT-549 breast
[5] = test system: NCI-H522 lung
[6] = test system: SF-268 CNS
[7] = test system: SN12C renal
[8] = test system: HOP-62 NSCLC
[9] = test system: IGROV1 ovarian
[10] = test system: ACHN renal

Compound	TGI [1]	TGI [2]	TGI [3]	TGI [4]	TGI [5]	TGI [6]	TGI [7]	TGI [8]	TGI [9]	TGI [10]
C=CCSC1=N/C(=C\c2ccccc2)C(=O)N1CC=C	> 100 µM	> 89.4 µM	> 100 µM	> 100 µM	> 100 µM	> 57.7 µM	> 100 µM	> 100 µM	> 100 µM	> 100 µM
CN(NC(=O)CCCl)C1=NCCCCN1	> 100 µM	> 100 µM	> 100 µM	> 100 µM	> 100 µM	> 100 µM	> 100 µM	> 100 µM	> 100 µM	> 100 µM
CN(C)Cc1cc(O)c(O)c(CN(C)C)c1	> 100 µM	> 100 µM	> 100 µM	> 100 µM	> 100 µM	> 100 µM	> 100 µM	> 100 µM	> 100 µM	> 100 µM
O=C1c2c(nc3ccccc3c2-c2ccccc2)CN1Nc1ccccn1	> 100 µM	67.4 µM	> 100 µM	> 100 µM	> 100 µM	> 100 µM	> 100 µM	> 100 µM	> 100 µM	> 100 µM
CCOC(=O)/C=C(\C(=O)OCC)n1ccc(N)nc1=O	> 100 µM	> 100 µM	> 100 µM	> 100 µM	40.8 µM	> 100 µM	> 100 µM	> 100 µM	> 100 µM	> 100 µM
O=c1c2cc(I)ccc2nc(Sc2ncccc2[N+](=O)[O-])n1Cc1ccccc1	> 100 µM	92.3 µM	> 100 µM	64 µM	78 µM	> 100 µM	> 100 µM	> 100 µM	> 100 µM	> 100 µM
CC(C)(C)C1(COC(=O)c2ccc(N)cc2)COC1	> 100 µM	> 100 µM	> 100 µM	> 100 µM	> 100 µM	> 100 µM	> 100 µM	> 100 µM	> 100 µM	> 100 µM
CCCCc1ccc(Nc2ncc3[nH]cnc3n2)cc1	> 100 µM	33.9 µM	42.6 µM	52.8 µM	55 µM	50.1 µM	48.9 µM	37.2 µM	39.6 µM	31.7 µM
COc1cc(CC2c3cc(OC)c(OC)cc3CCN2C)c(Oc2cc3c(cc2OC)-c2c(O)c(OC)cc4c2C(C3)N(C)CC4)cc1OC (stereo not given)	94.3 µM	45.2 µM	> 100 µM	32.4 µM	39.3 µM	46 µM	42 µM	> 100 µM	45.1 µM	49.8 µM
COC(=O)/C=C(/C(=O)OC)c1c(C)c(C)c2c(C)cc(C)cc(C)c1-2	> 100 µM	62.2 µM	> 100 µM	> 100 µM	52.3 µM	> 100 µM	> 100 µM	81 µM	> 100 µM	> 100 µM
[N-]=[N+]=NCc1cccc(Nc2cc(=O)[nH]c(=O)[nH]2)c1	> 100 µM	> 100 µM	> 100 µM	> 100 µM	> 100 µM	> 100 µM	> 100 µM	> 100 µM	> 100 µM	> 100 µM
O=c1c(C=Nc2ccc([N+](=O)[O-])cc2)c(O)n(-c2ccccc2)c(=O)n1-c1ccccc1	> 100 µM	> 100 µM	> 100 µM	> 100 µM	> 100 µM	> 100 µM	> 100 µM	> 100 µM	> 100 µM	> 100 µM
NC(=S)Nc1[nH]c(=S)nc2c1SC1=N/C(=C\c3ccco3)C(=O)N12	> 100 µM	> 100 µM	> 100 µM	> 100 µM	> 100 µM	> 100 µM	> 100 µM	> 100 µM	> 100 µM	> 100 µM
